Values after ≈ are worked out from the molar mass of the structure shown. Values joined by “and” are separate entries in the source; they are usually repeats but may differ in a detail not shown here. Identical values can stand only once. Like-named read-outs stand apart in the source and are kept apart here. Marks after values point to notes of the source that are not given here.
Experiments:
[1] = system: MRSA 01, MRSA 15, MRSA 16; assay: Mutational frequency evaluation, Example 3; format: cell-based, Staphylococcus aureus; conditions: for Frequency of spontaneous mutations conferring resistance: strain MRSA 01, average of 10 replicates; for mutation frequency at MIC×1: no colony grew
Procedure: Strains were conserved in Luria Bertani (LB) Broth supplemented with glycerol 15% (v/v) at −80° C., and reactivated by isolation on LB agar plates. Strains were cultivated aerobically in Mueller Hinton (MH) Broth-cation adjusted at 37° C.
The frequency of spontaneous single-step mutations was determined on the 3 different strains as described by Drago et al. (2005) and Pannu et al. (2011). […] Adequate dilutions were plated on plates without the compound.
Viable cell growth was enumerated after 48 hours of incubation at 37° C.
The spontaneous resistance frequency for an isolate-drug combination was calculated from the number of colonies that grew on plates containing drug versus the number of colonies that grew on drug-free agar.
Ten replicates were carried out for each strain and fusidic acid, mupirocin and retapamulin were used as controls for the MRSA 01 strain.

P. aeruginosa = conditions: cited from earlier work
MRSA 01 [2] = assay: Time-kill assay; format: cell-based, Staphylococcus aureus; conditions: niclosamide 4 μg/ml (MIC×10), initial inoculum 7 log10 cfu/ml
Procedure: Assay was performed in 20 ml of medium. It included a negative control (medium without bacteria), a positive control (bacteria grown without niclosamide) and the assay (bacteria grown with niclosamide). […] This experiment was performed with the primary test microorganism indicated above.
The overnight culture was stopped and OD600 was measured. Culture was then diluted in indicated medium to obtain an OD600 of 0.25 in order to have about 5×10^8 cfu/ml. Two hundred μl of this diluted culture were then added in all conditions except in the negative control. Initial bacterial concentration was about 5×10^6 cfu/ml. Tubes were incubated aerobically at 37° C. for 24 hours.
Bacteria were enumerated before the incubation, after 30 minutes, 1, 2, 4, 8 and 24 hours of incubation by serial dilutions in NaCl 0.9% and plating on LB agar, with 2 plates per dilution. Plates were incubated at 37° C. and colonies enumerated after 24 hours.

S. pyogenes strains = assay: Minimum Inhibitory Concentration (MIC) assay, Example 1, S. pyogenes strains; format: cell-based, Streptococcus pyogenes
Procedure: (§1) Strains were conserved in Luria Bertani (LB) Broth (S. aureus) or Brain Heart Infusion (BHI) (S. pyogenes) supplemented with glycerol 15% (v/v) at −80° C., and reactivated by isolation on LB (S. aureus) or BHI (S. pyogenes) agar plates. Strains were cultivated in Mueller Hinton (MH) Broth-cation adjusted (S. aureus) supplemented with lysed horse blood 2.5% (v/v) (S. pyogenes). All strains were cultivated at 37° C., aerobically for S. aureus strains.
(§2) Bacterial cultures were stopped in their exponential growth phase and plates were inoculated with the approximate concentration of 10^3 cells per well. Plates were incubated at 37° C. for 18 hours (S. aureus) or 24 hours (S. pyogenes). Optical density at a wavelength of 600 nm was measured at the end of the incubation time. […] Experiments were performed at least as triplicate biological replicates with all strains.

[3] = system: quorum sensing response in P. aeruginosa; conditions: reduction of quorum sensing response in P. aeruginosa; cited from earlier work
MRSA 01 [4] = assay: Effect of pH on the antibacterial activity (MIC) of niclosamide; format: cell-based, Staphylococcus aureus; conditions: for MIC: Staphylococcus aureus, MRSA
Procedure: This strain was conserved in Luria Bertani (LB) Broth supplemented with glycerol 15% (v/v) at −80° C., and reactivated by isolation on LB agar plates. It was then cultivated aerobically in Mueller Hinton (MH) Broth-cation adjusted at 37° C.
The pH of Mueller-Hinton Broth cation-adjusted was adjusted with HCl 2M to 7, 6.5, 6, 5.5, 5, 4.5 and […]. Ten ml of medium for each pH were prepared. pH of non-adjusted MHBII was equal to 7.4.
Each pH-adjusted samples were filtered on 0.2 μm filters before being used for the MIC determination assay.
Bacterial culture was stopped in its exponential growth phase and plates were inoculated with the approximate concentration of 5×10^5 cells per well. Plates were incubated at 37° C. for 18 hours (S. aureus).
The experiment was performed in triple biological replicates.

[5] = system: Streptococcus pyogenes strains; assay: MIC assay, Example 2, S. pyogenes strains (in BHI); format: cell-based
Procedure: Strains were conserved in Luria Bertani (LB) Broth (S. aureus) or Brain Heart Infusion (BHI) (S. pyogenes) supplemented with glycerol 15% (v/v) at −80° C., and reactivated by isolation on LB (S. aureus) or BHI (S. pyogenes) agar plates. Strains were cultivated in Mueller Hinton (MH) Broth-cation adjusted (S. aureus) or BHI (S. pyogenes). All strains were cultivated aerobically (microaerobically for S. pyogenes strains) at 37° C. […] Bacterial cultures were stopped in their exponential growth phase and plates were inoculated with the approximate concentration of 5×10^5 cells per well.

MRSA 01 [6] = assay: Colony-forming unit (CFU) in skin lesions of mice challenged with MRSA 01; format: in vivo, Staphylococcus aureus; conditions: female Balb/c mice, MRSA 01 skin lesion, topical twice daily for three days, Experiment 1
Procedure: Three animal studies were performed with niclosamide and fusidic acid as comparison with different formulations and doses.
In each experiment, female Balb/c mice received a skin lesion approximately 1 cm^2 and were challenged with 1.5×10^8 cfu MRSA 01 topically. Twenty-four hours after the wound formation and the contamination, mice were treated topically with 0.05 ml twice daily for three days. Mice were sacrificed on day 4, skin lesions were excised and cfu quantitated. Fusidin ointment (2% from Leo Pharma) was included as control.

S. aureus strains = assay: Minimum Inhibitory Concentration (MIC) assay, Example 1, S. aureus strains; format: cell-based; conditions: Staphylococcus aureus
Procedure: as §1, §2

[7] = cited from earlier work
[8] = S. pyogenes strains with MIC 0.0625 μg/ml
[9] = S. pyogenes strains with MIC 0.5 μg/ml
[10] = S. pyogenes strains with MIC […]

## CC(=O)O[C@H]1C[C@@]2(C)[C@@H](C[C@@H](O)[C@H]3[C@@]4(C)CC[C@@H](O)[C@@H](C)[C@@H]4CC[C@@]32C)/C1=C(\CCC=C(C)C)C(=O)O [Fusidic acid]
[1]; MRSA 01
  mutational frequency at MIC×1: ≥ 4.10^−5
  mutational frequency at MIC×10: 3.10^−7
[1]; concentration MIC × 1
  Frequency of spontaneous mutations conferring resistance: ≥4.10^−5
[1]; concentration MIC × 2
  Frequency of spontaneous mutations conferring resistance: 2.10^−5
[1]; concentration MIC × 4
  Frequency of spontaneous mutations conferring resistance: 1.10^−6
[1]; concentration MIC × 10
  Frequency of spontaneous mutations conferring resistance: 3.10^−7

## C/C(=C\C(=O)OCCCCCCCCC(=O)O)C[C@@H]1OC[C@H](C[C@@H]2O[C@H]2[C@@H](C)[C@H](C)O)[C@@H](O)[C@H]1O [Mupirocin]
[1]; concentration MIC × 1
  Frequency of spontaneous mutations conferring resistance: ≥4.10^−5
[1]; concentration MIC × 2
  Frequency of spontaneous mutations conferring resistance: 8.10^−8
[1]; concentration MIC × 4
  Frequency of spontaneous mutations conferring resistance: 1.10^−8
[1]; concentration MIC × 10
  Frequency of spontaneous mutations conferring resistance: ≤4.10^−9

## O=C(Nc1ccc([N+](=O)[O-])cc1Cl)c1cc(Cl)ccc1O [Niclosamide, 5-chloro-N-(2-chloro-4-nitrophenyl)-2-hydroxybenz-amide]
P. aeruginosa
  effect on growth of P. aeruginosa: does not affect the growth
MRSA 01 [2]
  bactericidal or bacteriostatic effect (time-kill curve): bacteriostatic effect
S. pyogenes strains; Streptococcus pyogenes, S. pyogenes strains, read-out: Mic100 S. pyogenes
  MIC: ≤ 3 µg/mL and ≤ 3 µM
S. pyogenes strains; against Streptococcus pyogenes strains (FIG. 1), read-out: MIC
  MIC: ≤ 3.2 µg/mL
[1]; MRSA 15
  mutation frequency at MIC×1: < 3×10^−8
[1]; MRSA 16
  mutation frequency at MIC×1: < 1×10^−7
[1]; all tested strains (MRSA 01, MRSA 15, MRSA 16), below the detection limit
  mutational frequency at MIC×1: < 4.10^−9
[1]; concentration MIC × 1
  Frequency of spontaneous mutations conferring resistance: <4 × 10^−9*
[1]; concentration MIC × 2
  Frequency of spontaneous mutations conferring resistance: <4 × 10^−9*
[1]; concentration MIC × 4
  Frequency of spontaneous mutations conferring resistance: <4 × 10^−9*
[1]; concentration MIC × 10
  Frequency of spontaneous mutations conferring resistance: <4 × 10^−9*
[3]
  concentration at which some inhibition was detected: 1 µM
  concentration required for optimal activity: 20 µM
MRSA 01 [4]; MRSA 01, pH 7.4 to 5.5
  inhibitory activity against MRSA 01 as a function of pH: increased when pH was decreased
MRSA 01 [4]; MRSA 01, pH-adjusted Mueller-Hinton Broth
  pH at which the maximal inhibitory effect was observed: 5.5
MRSA 01 [4]; MRSA 01, pH 5.5 (actual pH 5.530), Replicate 3
  MIC: ≤ 0.008 µg/mL
MRSA 01 [4]; MRSA 01, pH 5.5 (actual pH 5.547), Replicate 2
  MIC: ≤ 0.008 µg/mL
MRSA 01 [4]; MRSA 01, pH 5.5 (actual pH 5.569), Replicate 1
  MIC: ≤ 0.03 µg/mL
MRSA 01 [4]; MRSA 01, pH 6.0 (actual pH 5.893), Replicate 1
  MIC: 0.06 µg/mL (≈ 0.183 µM)
MRSA 01 [4]; MRSA 01, pH 6.0 (actual pH 5.955), Replicate 2
  MIC: 0.06 µg/mL (≈ 0.183 µM)
MRSA 01 [4]; MRSA 01, pH 6.0 (actual pH 5.980), Replicate 3
  MIC: 0.016 µg/mL (≈ 0.0489 µM)
MRSA 01 [4]; MRSA 01, pH 6.5 (actual pH 6.512), Replicate 1
  MIC: 0.125 µg/mL (≈ 0.382 µM)
MRSA 01 [4]; MRSA 01, pH 6.5 (actual pH 6.540), Replicate 3
  MIC: 0.03 µg/mL (≈ 0.0917 µM)
MRSA 01 [4]; MRSA 01, pH 6.5 (actual pH 6.566), Replicate 2
  MIC: 0.06 µg/mL (≈ 0.183 µM)
MRSA 01 [4]; MRSA 01, pH 7.0 (actual pH 6.921), Replicate 1
  MIC: 0.25 µg/mL (≈ 0.764 µM)
MRSA 01 [4]; MRSA 01, pH 7.0 (actual pH 7.025), Replicate 3
  MIC: 0.125 µg/mL (≈ 0.382 µM)
MRSA 01 [4]; MRSA 01, pH 7.0 (actual pH 7.071), Replicate 2
  MIC: 0.125 µg/mL (≈ 0.382 µM)
MRSA 01 [4]; pH 7.4, MRSA 01, pH not adjusted (actual pH 7.4), Replicate 1
  MIC: 0.5 µg/mL (≈ 1.53 µM)
MRSA 01 [4]; pH 7.4, MRSA 01, pH not adjusted (actual pH 7.4), Replicate 2
  MIC: 0.25 µg/mL (≈ 0.764 µM)
MRSA 01 [4]; pH 7.4, MRSA 01, pH not adjusted (actual pH 7.4), Replicate 3
  MIC: 0.5 µg/mL (≈ 1.53 µM)
[5]; [8]
  MIC distribution (percentage of strains): 25%
  MIC distribution (ratio of strains): (1/4)
[5]; [9]
  MIC distribution (percentage of strains): 25%
  MIC distribution (ratio of strains): (1/4)
[5]; [10]
  MIC distribution (percentage of strains): 25%
  MIC distribution (ratio of strains): (1/4)
[5]; Streptococcus pyogenes, all targeted S. pyogenes strains
  MIC: ≤ 0.5 µg/mL
MRSA 01 [6]
  bacterial reduction (CFU in skin lesions) compared to control vehicles: significant bacterial reductions
S. aureus strains; S. aureus strains, read-out: Mic100 S. aureus
  MIC: ≤ 0.4 µg/mL and ≤ 1.25 µM
S. aureus strains; against S. aureus strains, including strains resistant to fusidic acid and to mupirocin (FIG. 1), read-out: MIC
  MIC: ≤ 0.4 µg/mL
[7]; Table 3
  LD50 mice p.o: >1500 mg/kg
[7]; mice, p.o.
  LD50: > 5000 mg/kg

## C=C[C@]1(C)C[C@@H](OC(=O)CS[C@@H]2C[C@H]3CC[C@@H](C2)N3C)[C@]2(C)[C@H](C)CC[C@]3(CCC(=O)[C@H]32)[C@@H](C)[C@@H]1O [Retapamulin]
[1]; concentration MIC × 1
  Frequency of spontaneous mutations conferring resistance: ≥4.10^−5
[1]; concentration MIC × 2
  Frequency of spontaneous mutations conferring resistance: 3.10^−7
[1]; concentration MIC × 4
  Frequency of spontaneous mutations conferring resistance: 2.10^−8
[1]; concentration MIC × 10
  Frequency of spontaneous mutations conferring resistance: <4.10^−9*
